Patent publication US11992468B2, “Abuse-deterrent dosage forms containing esketamine” (Clexio Biosciences Ltd., priority 2019, dated 2024)
Where a name gives a salt, the structure may show the parent alone.

Test: Simulated in vitro nasal diffusion/release (vertical diffusion cell)
Conditions: pH 6.4

Compound CN[C@]1(c2ccccc2Cl)CCCCC1=O [Esketamine HCl powder, esketamine hydrochloride] has a recovery at 10 min of 45.1%, a recovery at 30 min of 75.9% and a recovery at 60 min of 79.2%.
